Measurements: patent US7365231B2, “Compound with antitumor activity and preparation method therefor” (National Taiwan University of Science & Technology, priority 2005, dated 2008)

How the values were obtained:
Format in all cases: cell-based
[1] = tested on: MDA-MB-231; assay: NCI panel growth inhibition, sulforhodamine B; conditions: Homo sapiens; MDA-MB-231, Breast cancer; drug for last 48 h of 72 h
Text: (§1) Comparison of anticancer activities of the 1,3-substituted adamantane derivatives, 1,3-bis(4-aminophenyl)adamantane (1,3-DPANH2), 1,3-bis(4-(4-aminophenoxy)phenyl)adamantane (1,3-DPAONH2), 1,3-bis(4-(4-amino-3-hydroxy)phenyl)adamantane (1,3-DPA/OH/NH2) and 1,3-bis(4-(4-amino-2-trifluoromethylphenoxy)phenyl)adamantane (1,3-DPA/CF3/NH2) as shown in FIG. 1 were synthesized in the present invention. Those compounds were submitted to the National Cancer Institute for anticancer assay in culture against a standard panel of cell lines. […] To further confirm that the different substituents (CF3 and OH) on the phenyl ring of 1,3-DPAONH2 affect the growth inhibition of cancer cells. […] The transformations of 1,3-DPAONH2 to 1,3-DPA/OH/NH2 led to a remarked enhancement of anticancer activity toward all the tested cancer lines. The role of the OH group at the ortho position of the NH2 on growth inhibition is remarkable. In addition, one compound (1,3-DPA/OH/NH2) was confirmed to have an IC50 of <1 μM against one of the cells (BT-549 breast carcinoma). Comparison of anticancer activities of 1,3-substituted diaminophenyladamantane derivatives, the following order of potency against the tested cancer lines was observed: 1,3-DPA/OH/NH2>1,3-DPAONH2>1,3-DPANH2>1,3-DPA/CF3/NH2.

[2] = tested on: SNB-19; assay: NCI panel growth inhibition, sulforhodamine B; conditions: Homo sapiens; SNB-19, CNS cancer; drug for last 48 h of 72 h
Text: as §1

[3] = tested on: TK-10; assay: NCI panel growth inhibition, sulforhodamine B; conditions: Homo sapiens; TK-10, Renal cancer; drug for last 48 h of 72 h
Text: as §1

[4] = tested on: OVCAR-4; assay: NCI panel growth inhibition, sulforhodamine B; conditions: Homo sapiens; OVCAR-4, Ovarian cancer; drug for last 48 h of 72 h
Text: as §1

[5] = tested on: SF-268; assay: NCI panel growth inhibition, sulforhodamine B; conditions: Homo sapiens; SF-268, CNS cancer; drug for last 48 h of 72 h
Text: as §1

[6] = tested on: RXF-393; assay: NCI panel growth inhibition, sulforhodamine B; conditions: Homo sapiens; RXF-393, Renal cancer; drug for last 48 h of 72 h
Text: as §1

[7] = tested on: NCI-H226; assay: NCI panel growth inhibition, sulforhodamine B; conditions: Homo sapiens; NCI-H226, NSCLC; drug for last 48 h of 72 h
Text: as §1

[8] = tested on: ACHN; assay: NCI panel growth inhibition, sulforhodamine B; conditions: Homo sapiens, Renal cancer, drug for last 48 h of 72 h
Text: as §1

[9] = tested on: CCRF-CEM; assay: NCI panel growth inhibition, sulforhodamine B; conditions: Homo sapiens, Leukemia, drug for last 48 h of 72 h
Text: as §1

[10] = tested on: HL-60(TB); assay: NCI panel growth inhibition, sulforhodamine B; conditions: Homo sapiens, Leukemia, drug for last 48 h of 72 h
Text: as §1

[11] = tested on: UACC-257; assay: NCI panel growth inhibition, sulforhodamine B; conditions: Homo sapiens; UACC-257, Melanoma; drug for last 48 h of 72 h
Text: as §1

[12] = tested on: MCF-7; assay: NCI panel growth inhibition, sulforhodamine B; conditions: Homo sapiens, MCF7; MCF-7, Breast cancer; drug for last 48 h of 72 h
Text: as §1

[13] = tested on: T-47D; assay: NCI panel growth inhibition, sulforhodamine B; conditions: Homo sapiens, T47D, Breast cancer, drug for last 48 h of 72 h
Text: as §1

[14] = tested on: EKVX; assay: NCI panel growth inhibition, sulforhodamine B; conditions: Homo sapiens, NSCLC, drug for last 48 h of 72 h
Text: as §1

[15] = tested on: UACC-62; assay: NCI panel growth inhibition, sulforhodamine B; conditions: Homo sapiens; UACC-62, Melanoma; drug for last 48 h of 72 h
Text: as §1

[16] = tested on: SK-MEL-2; assay: NCI panel growth inhibition, sulforhodamine B; conditions: Homo sapiens; SK-MEL-2, Melanoma; drug for last 48 h of 72 h
Text: as §1

[17] = tested on: OVCAR-3; assay: NCI panel growth inhibition, sulforhodamine B; conditions: Homo sapiens; OVCAR-3, Ovarian cancer; drug for last 48 h of 72 h
Text: as §1

[18] = tested on: HT29; assay: NCI panel growth inhibition, sulforhodamine B; conditions: Homo sapiens, HT-29; HT29, Colon cancer; drug for last 48 h of 72 h
Text: as §1

[19] = tested on: U251; assay: NCI panel growth inhibition, sulforhodamine B; conditions: Homo sapiens, U-251; U251, CNS cancer; drug for last 48 h of 72 h
Text: as §1

[20] = tested on: UO-31; assay: NCI panel growth inhibition, sulforhodamine B; conditions: Homo sapiens; UO-31, Renal cancer; drug for last 48 h of 72 h
Text: as §1

[21] = tested on: RPMI-8226; assay: NCI panel growth inhibition, sulforhodamine B; conditions: Homo sapiens; RPMI-8226, Leukemia; drug for last 48 h of 72 h
Text: as §1

[22] = tested on: NCI-H322M; assay: NCI panel growth inhibition, sulforhodamine B; conditions: Homo sapiens, NSCLC, drug for last 48 h of 72 h
Text: as §1

[23] = tested on: HS 578T; assay: NCI panel growth inhibition, sulforhodamine B; conditions: Homo sapiens, Breast cancer, drug for last 48 h of 72 h
Text: as §1

[24] = tested on: MALME-3M; assay: NCI panel growth inhibition, sulforhodamine B; conditions: Homo sapiens, Melanoma, drug for last 48 h of 72 h
Text: as §1

[25] = tested on: NCI's human cancer cell lines; assay: NCI panel growth inhibition, whole panel summary; conditions: in vitro
Text: as §1, with “1,3-DPA/OH/NH2>1,3-DPAONH2>1,3-DPANH2>1,3-DPA/CF3/NH2. […]” for “1,3-DPA/OH/NH2>1,3-DPAONH2>1,3-DPANH2>1,3-DPA/CF3/NH2.”

| SMILES | IC50 [1] [µM] | IC50 [2] [µM] | IC50 [3] [µM] | IC50 [4] [µM] | IC50 [5] [µM] | IC50 [6] [µM] | IC50 [7] [µM] | IC50 [8] [µM] | IC50 [9] [µM] | IC50 [10] [µM] | IC50 [11] [µM] | IC50 [12] [µM] | IC50 [13] [µM] | IC50 [14] [µM] | IC50 [15] [µM] | IC50 [16] [µM] | IC50 [17] [µM] | IC50 [18] [µM] | IC50 [19] [µM] | IC50 [20] [µM] | also measured |
| --- | --- | --- | --- | --- | --- | --- | --- | --- | --- | --- | --- | --- | --- | --- | --- | --- | --- | --- | --- | --- | --- |
| Nc1ccc(C2(c3ccc(N)cc3)C3CC4CC(C3)CC2C4)cc1 [2,2-DPANH2, 2,2-bis(4-aminophenyl)adamantane] | 17.4 | 14.6 | 18 | 14.3 | 1.57 | 2.74 | 12.4 | 18.6 | 3.76 | 19.2 | 19.2 | 19.4 | 14.4 | 16.4 | 16.3 | 18.5 | 10.9 | 0.1 | 18.6 | 18.3 |  |
| Nc1ccc(C23CC4CC(C2)CC(c2ccc(N)cc2)(C4)C3)cc1 [1,3-DPANH2, 1,3-bis(4-aminophenyl)adamantane] | 19.6 | 37.8 | > 100 | 10.2 | 45.2 |  | 11.5 | 41.1 | 15.7 | 30.9 | 75.5 | 31.9 |  | 36.6 | 29 | 35.9 | 48.5 |  | 14.3 | 4.87 | IC50 [21]: 10.7 µM |
| Nc1ccc(Oc2ccc(C34CC5CC(C3)CC(c3ccc(Oc6ccc(N)c(O)c6)cc3)(C5)C4)cc2)cc1O [1,3-DPA/OH/NH2, 1,3-bis-(4-(4-amino-3-hydroxyphenoxy)phenyl)adamantane] | 1.62 | 1.31 | 5.57 | 2.02 | 1.16 | 1.61 | 5.05 | 1.61 |  | 2.12 | 2.23 | 1.85 | 1.66 | 1.68 | 2.65 | 2.45 | 1.85 |  | 1.3 | 1.95 | IC50 [22]: 1.26 µM; IC50 [21]: 2.54 µM; IC50 [23]: 1.63 µM; IC50 [24]: 1.93 µM; growth inhibitory activity against the tested cancer cell lines (in words) [25]: strong growth inhibitory activities |
| Nc1ccc(Oc2ccc(C34CC5CC(C3)CC(c3ccc(Oc6ccc(N)cc6)cc3)(C5)C4)cc2)cc1 [1,3-DPAONH2, 1,3-bis(4-(4-aminophenoxy)phenyl)adamantane] | 16.9 | 8.66 | 24.9 | 6.98 | 5.6 | 7.78 | 23.2 | 11.7 | 4.83 | 17.1 | 12.5 | 2.89 | 5.67 | 15.6 | 9.64 | 15.7 | 3.08 | 7.12 | 7.9 | 13.6 | IC50 [22]: 8.84 µM; IC50 [21]: 4.14 µM; IC50 [23]: 11.7 µM; IC50 [24]: 14.6 µM |
| Nc1ccc(Oc2ccc(C34CC5CC(C3)CC(c3ccc(Oc6ccc(N)cc6C(F)(F)F)cc3)(C5)C4)cc2)c(C(F)(F)F)c1 [1,3-DPA/CF3/NH2, 1,3-bis-(4-(4-amino-2-trifluoromethylphenoxy)phenyl)adamantane] | 15.2 | 22.5 | 16.1 | 36.6 | 17.4 | 11.1 | 19.4 | 32.9 | 36.2 | 24.2 | 18.7 | 13.4 | 15.1 | 15.4 | 22.1 | 14.1 | 17.9 | 17.2 | 14.5 | 39.1 | IC50 [22]: 20.1 µM; IC50 [23]: 17.1 µM; IC50 [24]: 22.2 µM |
| Nc1ccc(Oc2ccc(C3(c4ccc(Oc5ccc(N)c(O)c5)cc4)C4CC5CC(C4)CC3C5)cc2)cc1O [DPA, 2,2-bis(4-(4-amino-3-hydroxyphenoxy)phenyl)adamantane] | 1.82 | 3.01 | 2.16 | 3.07 | 1.62 | 1.82 | 1.94 | 1.78 | 3.08 | 2.05 | 2.32 | 1.93 | 4.13 | 2.63 | 3.21 | 1.69 | 1.56 | 1.81 | 1.7 | 1.85 | IC50 [22]: 1.41 µM; IC50 [21]: 1.92 µM; IC50 [23]: 2.35 µM; IC50 [24]: 2.02 µM; growth inhibitory activity against the tested cancer cell lines (in words) [25]: strong growth inhibitory activities |
| Nc1ccc(Oc2ccc(C3(c4ccc(Oc5ccc(N)cc5)cc4)C4CC5CC(C4)CC3C5)cc2)cc1 [2,2-DPAONH2, 2,2-bis(4-(4-aminophenoxy)phenyl)adamantane] | 17 | 10.1 | 14.3 | 6.96 | 6.44 |  | 21.4 | 13.4 | 3.03 | 5 | 5.76 | 3.81 |  | 4.76 | 17.7 | 16.8 | 2.58 | 2.96 | 2.81 | 3.02 | IC50 [22]: 0.184 µM; IC50 [21]: 3.01 µM; IC50 [23]: 4.91 µM; IC50 [24]: 13.6 µM |
